The source of these data is US20240247029A1, “INTERLEUKIN-1 RECEPTOR MODULATORS AND USES THEREOF” (VALORISATION HSJ, LIMITED PARTNERSHIP, priority 2020, published 2024).

In experiment [1] the test system is IL-1β-induced NF-κB signaling in HEK-Blue IL-33/IL-1β cells. The experiment can be described thus: NF-κB QUANTI-Blue assay. In kind it is cell-based. As to conditions: Kineret 1.0 mg/mL, 30 min pretreatment, IL-1β 100 ng/ml. On the procedure: FIG. 3 is a graph showing the effects of peptides 1 and 2 on IL-1β-induced NF-κB signaling in HEK-Blue cells as quantified in the QUANTI-blue assay. After pre-incubation with peptide or vehicle, HEK-Blue cells were stimulated with IL-1β for 24 h, and secreted alkaline phosphatase activity was spectroscopically detected as a reporter product from the transcription of the NF-κB gene. Data shown represents the average of 2 experiments (each with n=4 per treatment group): ****p<0.0001 compared to group treated only with IL-1β.
HEK-Blue IL-33/IL-1β cells (InvivoGen) were respectively pretreated with peptides 1 and 2 (10^−6 M), or Kineret (1.0 mg/mL) for 30 min, followed by treatment with a constant concentration of […] (100 ng/ml), and incubation at 37° C. for 4 h. Levels of secreted alkaline phosphatase in cell culture supernatant were determined using the QUANTI-Blue assay, according to the manufacturer's instructions (InvivoGen). Alkaline phosphatase activity was assessed by measuring the optical density (OD) at 620-655 nm with an EnVision Multilabel micro plate reader (PerkinElmer, Waltham, MA). Data are representative of 3 experiments (each with n=4 per treatment group).

Another experiment concerns IL-1β gene expression. Put plainly: qPCR of IL-1β gene expression in RAW 264.7 macrophages. In kind it is cell-based. The following applies: peptide 10^−6 M, 30 min pre-incubation, IL-1β stimulation, RAW 264.7 mouse macrophages. On the procedure:
(§1) FIGS. 4A and 4B are graphs showing the results of qPCR analysis of IL-1β (FIG. 4A) and COX-2 (FIG. 4B) gene expression within lysates from RAW 264.7 mouse macrophage cells after exposure to peptides 1 and 2 (10^-6 M) or Kineret (1 mg/mL) followed by […] incubation overnight. Results represent an average of 3 independent experiments (each with n=4 per treatment group) and are expressed as a fold-change of the non-stimulated control: *p<0.05, **p<0.01 compared to group treated only with IL-1β, and 18S rRNA as internal control. Treatment groups that are not labeled with asterisks are statistically non-significant compared to group treated only with IL-1β.;
(§2) RAW Blue cells were purchased from InvivoGen® (San Diego, CA), used at passages under 15, and cultured in DMEM growth medium supplemented with 10% serum, 50 U/mL penicillin and […] zeocin. Cells were grown in regular conditions (37° C., 5% CO2), serum starved overnight, and treated with 100 ng/ML IL-1β for 4 h. Cells were respectively pre-incubated for 30 min with peptides 1 and 2 (10^−6 M) or Kineret® (1.0 mg/mL) to reach equilibrium prior to the experiments (n=4 each treatment). Cells were harvested and incubated for 5 min in RIBOzol® (AMRESCO). RNA was extracted according to manufacturer's protocol and RNA concentration and integrity were measured with a NanoDrop® 1,000 spectrophotometer. A total of 500 ng of RNA was used to synthesize cDNA using iScript Reverse Transcription SuperMix® (Bio-Rad, Hercules, CA). Primers (Table 1) were designed using National Center for Biotechnology Information Primer Blast. Quantitative gene expression analysis was performed on Stratagene® MXPro3000 (Stratagene) with SYBR Green Master Mix (Bio-Rad). Gene expression levels were normalized to 18S universal primer (Ambion Life Technology, Burlington ON, Canada). Genes analyzed include […] and PTGHS2 [Prostaglandin H synthetase 2 or cyclooxygenase-2 (COX-2)]. Data are representative of 3 experiments (each with n=4 per treatment group).

Experiment [2] has as its system COX-2 (PTGHS2) gene expression. Put plainly: qPCR of COX-2 gene expression in RAW 264.7 macrophages. In kind it is cell-based. The following applies: peptide 10^−6 M, 30 min pre-incubation, IL-1β stimulation, RAW 264.7 mouse macrophages. On the procedure:
as §1, §2
On the technique in general: In qPCR the cycle at which signal appears reflects the starting amount.

For the next experiment, the system named is timed-pregnant CD-1 mice. Put plainly: LPS-induced preterm birth model in mice. As to conditions: 2 mg/kg/day subcutaneous, LPS 10 μg intraperitoneal on G16.5. In kind it is in vivo, mouse. On the procedure: FIG. 6 is a graph showing the effects of peptides 1 and 2 on prevention of PTB. In brief, pregnant dams on day 16.5 of gestation (G16.5) were subcutaneously pretreated with peptides 1 and 2 (2 mg/kg/day subcutaneous injections) or vehicle, followed by LPS (10 μg intraperitoneal injection), and observed for delivery of pups. A dam was considered as delivering preterm if at least one pup was delivered before G18.5. n=4-5 dams per treatment group.
Timed-pregnant CD-1 mice at 16.5 days of gestation (G16.5) were anesthetized with 2% isoflurane and received an intraperitoneal injection of lipopolysaccharide (LPS, n=4 per group, a single dose of 10 ug) (Nadeau-Vallée et al., 2015; Kakinuma et al., 1997). A dosage of 2 mg/kg/day of peptides 1 and 2 or vehicle was respectively injected subcutaneously in the neck, every 12h until delivery. On G16.5, a dose of 1 mg/kg was injected 30 min before stimulation with LPS (to allow distribution of drugs to target tissues) and 1 mg/kg was injected 12h after stimulation (n=4 each treatment). Mice delivery was assessed every hour until term (G19-G19.5). A mouse was considered as delivering prematurely if the first pup was delivered earlier than G18.5. Data was analyzed using Prism 7 (GraphPad Software, San Diego, CA, USA) with one-way ANOVA and Dunnett's test for multiple comparisons. Outliers were detected using Grubb's test. Results were treated as significant when p was <0.05 and expressed as mean+SEM.
From the results of the in vitro screens, a subset of six (3R,4S)-β-substituted-Agl^3 peptides (e.g., 2c, 2d, 2f, 2l, 2n, 2q) were selected for examination in vivo in a CD-1 mouse model of preterm birth (PTB), and a Sprague Dawley rat model of oxygen-induced retinopathy (OIR). In the PTB model, timed-pregnant CD-1 dams were pre-treated with peptides 1 or 2, or PBS vehicle, and then injected with LPS on day 16.5 of gestation (G16.5). A bacterial cell wall component that contains PAMPs, LPS is known to reliably induce labor via pro-inflammatory pathways implicating IL-1 (Hirsch and Wang 2005). The CD-1 mice have a gestation of 19.2 days (Goupil et al. 2010). Dams that delivered at least one pup before G18.5 were considered to have given birth prematurely. In the absence of peptide, LPS alone induced premature labor in ˜80% of treated mice (FIG. 6). Peptide 1 and triazoles 2 l and 2q, all reduced the PTB rate to ˜20%.

The subject of experiment [3] is IL-1β-induced phosphorylation of JNK. The experiment can be described thus: IL-1β-induced JNK phosphorylation, Western blot, RAW Blue cells. In kind it is cell-based. The following applies: peptide 10^−6 M 30 min, then IL-1β 15 min. On the procedure: (§3) FIGS. 5A-C are graphs showing the effects of peptides 1 and 2 on IL-1β-induced phosphorylation of p38 (FIG. 5A), JNK (FIG. 5B), and ROCK2 (FIG. 5C). Graphical representations of band density analysis of Western Blots are shown as fold activation compared to control. RAW Blue cells were pretreated with peptides 1 and 2 (10^−6 M), Kineret (1 mg/mL), or vehicle for 30 min and then stimulated with IL-1β for 15 min. Results shown are the average of 3 independent experiments: *p<0.05, ** p<0.01, ***p<0.001 compared to group treated only with IL-1β. Treatment groups that are not labeled with asterisks are statistically non-significant compared to group treated only with IL-1β.

The test system of another experiment is Sprague Dawley rat pups. Put plainly: Oxygen-induced retinopathy (OIR) model. In kind it is in vivo. The following applies: 2 mg/kg/day intraperitoneal twice daily, 80% oxygen P5 to P10; for extent of vaso-obliteration (percentage of total retinal area): vehicle ˜30%. An excerpt: Experiments in the oxygen-induced retinopathy rodent model were preformed according to the method described previously (Geranurimi et al. 2019), and summarized below.
Animals. Two-day-old (P2) Sprague Dawley rat pups and their mothers were ordered from Charles River (Raleigh, SC, USA) and acclimatized for 3 days in standard conditions. All procedures and protocols involving the use of the rats were approved by the Animal Care Committee of the research center of Hopital Maisonneuve-Rosemont and are in accordance with the Statement for the Use of Animals in Ophthalmic and Vision Research approved by the Association for Research in Vision and Ophthalmology, and guidelines established by the Canadian Council on Animal Care.
Oxygen-Induced Retinopathy in Sprague Dawley Rats. The 80% oxygen model of retinopathy was conducted as previously described (Geranurimi et al. 2019). Briefly, litters of P5 pups and their mothers were kept in a controlled 80% oxygen environment until P10. The pups were respectively injected intraperitoneally twice daily with PBS vehicle (20 μL per injection), peptide 1 or derivatives 2 (titrated to a daily dose of 2 mg/kg/day). Control litters were kept under normal air atmosphere and standard conditions. On P10, pups were euthanized by decapitation under 2% isoflurane anesthesia. Eyes were enucleated and fixed in 4% paraformaldehyde, then stored at 4° C. in phosphate-buffered saline (PBS) until further processing.
Retinal Flatmount and Immunohistochemistry. The fixed eyes were dissected, and the obtained retinas were incubated with antibodies and mounted onto slides as previously described in (Geranurimi et al. 2019). Briefly, the cornea and lens were removed from the eyes, and the retina gently removed from the underlying sclera-choroid-retinal pigmented epithelium (RPE) complex. Retinas were treated for 1h with blocking solution [1% bovine serum albumin (BSA), 1% normal goat serum, 0.1% Triton X-100 and 0.05% Tween-20 in PBS], and then incubated overnight with lectin and Iba-1 primary antibody, followed by Alexa-594-conjugated secondary antibody for 2 h. Retinas were then mounted onto microscope slides under coverslips with anti-fade mounting medium.
Microscopy. Retinal flatmounts were imaged using the Zeiss Axiolmager Z2 and the MosaiX feature of the AxioVision software as previously described (Geranurimi et al. 2019). Representative images after Iba-1 staining were taken using a laser scanning confocal microscope (Olympus IX81 with Fluoview FV1000 Scanhead) using the Fluoview Software at 30× magnification.
Quantification and Data Analysis. The FIJI software was used to quantify the area of vaso-obliteration in each retina, expressed as a percentage of the area of the whole retina. The number of Iba-1-positive cells was counted using the cell counter plug-in in the FIJI software, and the average of cell counts in 4 fields per retina was calculated. Data was analyzed using Prism 7 with one-way ANOVA and the Dunnett's test for multiple comparisons. Results were treated as significant when p was less than 0.05 and expressed as mean+SEM.

Experiment [4] deals with IL-1β-induced phosphorylation of p38. The experiment can be described thus: IL-1β-induced p38 phosphorylation, Western blot, RAW Blue cells. In kind it is cell-based. The following applies: peptide 10^−6 M 30 min, then IL-1β 15 min. The method, then: as §3
(In general: Immunoblotting shows a protein as a band on a membrane.)

For experiment [5], the system named is IL-1β-induced phosphorylation of ROCK2. Put plainly: IL-1β-induced ROCK2 phosphorylation, Western blot, RAW Blue cells. In kind it is cell-based. The following applies: peptide 10^−6 M 30 min, then IL-1β 15 min. The method, then: as §3

“Kineret®: the recombinant IL-1 receptor antagonist, Kineret® (anakinra)”: the “effect on IL-1β-induced NF-κB signaling (secreted alkaline phosphatase)” value in experiment [1] is “blocked”.
For the substance “[(3R,4S)-4-(4′-(1,1-Dimethyl)aminomethyltriazolyl)Agl^3]-1 [2o]”, in the experiment on IL-1β gene expression, the “IL-1β pro-inflammatory gene expression (qPCR)” value is “strong inhibitory effects”. Also, the “COX-2 pro-inflammatory gene expression (qPCR)” value in experiment [2] is listed as “strong inhibitory effects”.
Substance “[(3R,4S)-4-(4′-Hydroxymethyltriazolyl)Agl^3]-1 [2q]” returned a PTB rate in the experiment on timed-pregnant CD-1 mice (delivery before G18.5, LPS alone ˜80%) of around 20%. In experiment [3], the “IL-1β-induced activation (phosphorylation) of JNK” value is on record as “inhibited”. Moreover, the “IL-1β pro-inflammatory gene expression (qPCR)” value in the experiment with IL-1β gene expression is given as “strong inhibitory effects”. In addition, in the experiment with Sprague Dawley rat pups, the “retinal microglial morphology/activation (Iba-1 staining)” value is “ramified and branched microglia”; the “extent of vaso-obliteration (percentage of total retinal area)” value (“extent … (percentage of total retinal area)” below) is on record as around 20%. In addition, the “COX-2 pro-inflammatory gene expression (qPCR)” value in experiment [2] is on record as “strong inhibitory effects”.
“[(3R,4S)-4-(4′-m-Aminophenyltriazolyl)Agl^3]-1 [2n]”: the “effects on PTB” value in the experiment with timed-pregnant CD-1 mice is listed as “Neither N-oxyphthalimide 2f nor 4-m-aminophenyltriazole 2n exhibited effects on PTB”. Besides, in the experiment on Sprague Dawley rat pups, the “retinal microglial morphology/activation (Iba-1 staining)” value is “ramified and branched microglia”; the “extent … (percentage of total retinal area)” value was around 20%.
For “[(3R,4S)-4-(4′-p-Methylphenyltriazolyl)Agl^3]-1 [2m]”, the “IL-1β pro-inflammatory gene expression (qPCR)” value with IL-1β gene expression is “strong inhibitory effects”. For the same substance, the “COX-2 pro-inflammatory gene expression (qPCR)” value in experiment [2] is reported as “strong inhibitory effects”.
As for [(3R,4S)-4-(AcHN)Agl^3]-1 [2i], the “IL-1β-induced p38 phosphorylation” value in experiment [4] was “inhibiting”. In addition, in the experiment with IL-1β gene expression, the “IL-1β pro-inflammatory gene expression (qPCR)” value is “without effecting”. In addition, the “COX-2 pro-inflammatory gene expression (qPCR)” value in experiment [2] is “blocked expression”.
On to [(3R,4S)-4-(H2NO)Agl^3]-1 [2g], for which the “IL-1β pro-inflammatory gene expression (qPCR)” value with IL-1β gene expression is given as “without effecting”. Moreover, in experiment [5], the “IL-1β-induced ROCK2 phosphorylation” value is reported as “inhibitory activity”. Further, the “COX-2 pro-inflammatory gene expression (qPCR)” value in experiment [2] is recorded as “blocked expression”.
With [(3R,4S)-4-(PhthO)Agl^3]-1 [2f], the “effects on PTB” value with timed-pregnant CD-1 mice is reported as “Neither N-oxyphthalimide 2f nor 4-m-aminophenyltriazole 2n exhibited effects on PTB”. Besides, in the experiment on Sprague Dawley rat pups, the “retinal microglial morphology/activation (Iba-1 staining)” value is “ramified and branched microglia”; the “extent … (percentage of total retinal area)” value is listed as around 20%.
With [(3R, 4S)-4-(N3)Agl^3]-1 [2c], in the experiment with Sprague Dawley rat pups, the “protective effect against vaso-obliteration” value is “no detectable protective effect” and the “retinal microglial morphology/activation (Iba-1 staining)” value was “active amoeboid state”.
As to [(3S,4S)-4-(NCS)Agl^3]-1 [2d], the “IL-1β-induced p38 phosphorylation” value in experiment [4] is “inhibiting”. In the experiment with Sprague Dawley rat pups, the “protective effect against vaso-obliteration” value is “tendencies to have a stronger protective effect than peptide 1”; the “retinal microglial morphology/activation (Iba-1 staining)” value is “ramified and branched microglia”; the “extent … (percentage of total retinal area)” value is given as around 20%.
